# Literature values in US20050277132A1, “Nematode GS-like sequences” (Divergence Inc., a Delaware corporation, priority 2001, published 2005).
# Key:
# [1] = tested on: bacterial glutamine synthetase enzymes; settings: in vitro and in cell culture
# [2] = tested on: pathogenic bacteria that are known to secrete glutamine synthetase; settings: bacteria that secrete glutamine synthetase into the extracellular milieu
# [3] = tested on: nonpathogenic bacteria that do not export glutamine synthetase
# [4] = tested on: everted hamster jejunal and ileal segments
# [5] = tested on: isolated intestinal epithelial cells
Structure (SMILES),times more active against certain bacterial glutamine synthetase enzymes than representative mammalian glutamine synthetases [1],growth of pathogenic bacteria [2],effect against nonpathogenic bacteria [3],effect on water and electrolyte absorption [4],cytotoxicity [5]
CS(=N)(=O)CC[C@H](N)C(=O)O (stereo partly drawn) [L-methionine-S-sulfoximine],100 times,selectively block growth,no effect,,
CCCCCC[C@@H](O)C/C=C\CCCCCCCC(=O)O [Ricinoleic acid],,,,inhibitory effect,cytotoxic
CCCCCC[C@@H](O)C/C=C\CCCCCCCC(=O)OC [methyl ester of ricinoleic acid],,,,ineffective,
